Laboratory results published in PubChem BioAssay AID292 (DTP/NCI, 2004).
Values joined by “and” are separate entries in the source; they are usually repeats but may differ in a detail not shown here. Equal values may be shown once. Inconclusive results and toxic doses are left out.

Test system: B6C3F1 mice, ip Sarcoma M5076, median survival T/C
Test: NCI In Vivo Anticancer Drug Screen. Data for tumor model Sarcoma M5076 (intraperitoneal) in B6C3F1 mice
Details: endpoint: median survival time, higher = longer survival
Summary of the method: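 Transplantable tumour in mice; compound-treated vs vehicle-treated groups. Read-out: survival. Value = treated/control ratio.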

[1] = dose: 75.0 mg/kg/injection, schedule: Q04DX004 (ip), vehicle: Klucel (hydroxypropylcellulose) (HPC)
[2] = dose: 150.0 mg/kg/injection, schedule: Q04DX004 (ip), vehicle: Klucel (hydroxypropylcellulose) (HPC)
[3] = dose: 300.0 mg/kg/injection, schedule: Q04DX004 (ip), vehicle: Klucel (hydroxypropylcellulose) (HPC)
[4] = dose: 25.0 mg/kg/injection, schedule: Q04DX004 (ip), vehicle: Klucel (hydroxypropylcellulose) (HPC)
[5] = dose: 50.0 mg/kg/injection, schedule: Q04DX004 (ip), vehicle: Klucel (hydroxypropylcellulose) (HPC)
[6] = dose: 100.0 mg/kg/injection, schedule: Q04DX004 (ip), vehicle: Klucel (hydroxypropylcellulose) (HPC)
[7] = dose: 200.0 mg/kg/injection, schedule: Q04DX004 (ip), vehicle: Klucel (hydroxypropylcellulose) (HPC)
[8] = dose: 400.0 mg/kg/injection, schedule: Q04DX004 (ip), vehicle: Klucel (hydroxypropylcellulose) (HPC)
[9] = dose: 12.5 mg/kg/injection, schedule: Q04DX004 (ip), vehicle: water
[10] = dose: 25.0 mg/kg/injection, schedule: Q04DX004 (ip), vehicle: saline with Tween-80
[11] = dose: 50.0 mg/kg/injection, schedule: Q04DX004 (ip), vehicle: saline with Tween-80
[12] = dose: 100.0 mg/kg/injection, schedule: Q04DX004 (ip), vehicle: saline with Tween-80
[13] = dose: 200.0 mg/kg/injection, schedule: Q04DX004 (ip), vehicle: saline with Tween-80
[14] = dose: 400.0 mg/kg/injection, schedule: Q04DX004 (ip), vehicle: saline with Tween-80
[15] = dose: 6.25 mg/kg/injection, schedule: Q04DX004 (ip), vehicle: Klucel (hydroxypropylcellulose) (HPC)
[16] = dose: 12.5 mg/kg/injection, schedule: Q04DX004 (ip), vehicle: Klucel (hydroxypropylcellulose) (HPC)

## O=C1CN2Cc3c(sc4c3CCCC4)N=C2N1
dose: 37.5 mg/kg/injection, schedule: Q04DX004 (ip), vehicle: Klucel (hydroxypropylcellulose) (HPC)
  T/C: 103 % of control
[1]
  T/C: 104 % of control
[2]
  T/C: 100 % of control
[3]
  T/C: 103 % of control
dose: 600.0 mg/kg/injection, schedule: Q04DX004 (ip), vehicle: Klucel (hydroxypropylcellulose) (HPC)
  T/C: 100 % of control

## C/C=C/C=C\C=C/C(O)CC(OP(=O)(O)O)C(C)(O)/C=C/C1CC=CC(=O)O1 (stereo unspecified)
dose: 0.75 mg/kg/injection, schedule: Q04DX004 (ip), vehicle: Klucel (hydroxypropylcellulose) (HPC)
  T/C: 104 % of control
dose: 1.5 mg/kg/injection, schedule: Q04DX004 (ip), vehicle: Klucel (hydroxypropylcellulose) (HPC)
  T/C: 112 % of control
dose: 1.5 mg/kg/injection, schedule: Q04DX004 (ip), vehicle: water
  T/C: 106 % of control
dose: 3.0 mg/kg/injection, schedule: Q04DX004 (ip), vehicle: Klucel (hydroxypropylcellulose) (HPC)
  T/C: 111 % of control
dose: 3.0 mg/kg/injection, schedule: Q04DX004 (ip), vehicle: water
  T/C: 108 % of control and 111 % of control
dose: 6.0 mg/kg/injection, schedule: Q04DX004 (ip), vehicle: Klucel (hydroxypropylcellulose) (HPC)
  T/C: 112 % of control
dose: 6.0 mg/kg/injection, schedule: Q04DX004 (ip), vehicle: water
  T/C: 108 % of control and 113 % of control
dose: 12.0 mg/kg/injection, schedule: Q04DX004 (ip), vehicle: water
  T/C: 108 % of control
dose: 24.0 mg/kg/injection, schedule: Q04DX004 (ip), vehicle: water
  T/C: 112 % of control

## C=CCOc1cc2c(cc1C(C)c1ccc(OC)cc1)OCO2 (stereo unspecified)
[4]
  T/C: 98 % of control
[5]
  T/C: 116 % of control
[1]
  T/C: 113 % of control
[6]
  T/C: 115 % of control
dose: 144.0 mg/kg/injection, schedule: Q04DX004 (ip), vehicle: Klucel (hydroxypropylcellulose) (HPC)
  T/C: 118 % of control
[2]
  T/C: 106 % of control
[7]
  T/C: 123 % of control
dose: 240.0 mg/kg/injection, schedule: Q04DX004 (ip), vehicle: Klucel (hydroxypropylcellulose) (HPC)
  T/C: 108 % of control
[3]
  T/C: 124 % of control
[8]
  T/C: 108 % of control

## Nc1n[n+](-c2ccccc2)no1
dose: 6.25 mg/kg/injection, schedule: Q04DX004 (ip), vehicle: water
  T/C: 111 % of control and 117 % of control
dose: 12.5 mg/kg/injection, schedule: Q01DX009 (ip), vehicle: water
  T/C: 151 % of control
[9]
  T/C: 118 % of control
dose: 25.0 mg/kg/injection, schedule: Q01DX009 (ip), vehicle: water
  T/C: 168 % of control
dose: 50.0 mg/kg/injection, schedule: Q01DX009 (ip), vehicle: water
  T/C: 172 % of control and 235 % of control

## CC(C)(C)c1noc2c1C(=O)c1ccccc1-2
[10]
  T/C: 102 % of control
[11]
  T/C: 105 % of control
[12]
  T/C: 100 % of control
[13]
  T/C: 90 % of control

## Cc1cccc(-n2c(CC#N)n[nH]c2=S)c1
[11]
  T/C: 115 % of control
[12]
  T/C: 109 % of control
[13]
  T/C: 96 % of control
[14]
  T/C: 106 % of control
dose: 800.0 mg/kg/injection, schedule: Q04DX004 (ip), vehicle: saline with Tween-80
  T/C: 88 % of control

## O=c1[nH]cc(F)c(=O)[nH]1
dose: 12.5 mg/kg/injection, schedule: Q04DX004 (ip), vehicle: saline
  T/C: 104 % of control and 122 % of control
dose: 25.0 mg/kg/injection, schedule: Q04DX004 (ip), vehicle: saline
  T/C: 111 % of control and 120 % of control

## O=C1CCCCCC2=NC12 (stereo unspecified)
[15]
  T/C: 98 % of control
[16]
  T/C: 100 % of control and 105 % of control
[4]
  T/C: 105 % of control and 112 % of control
[5]
  T/C: 100 % of control and 113 % of control
[6]
  T/C: 103 % of control and 113 % of control

## Cc1nc2cc[nH]n2c(=O)c1CCc1ccccc1
[11]
  T/C: 107 % of control
[12]
  T/C: 94 % of control
[13]
  T/C: 96 % of control

## c1ccc2c(c1)oc1cc3c(cc12)n1nnnc1c1cccn31
dose: 3.12 mg/kg/injection, schedule: Q04DX004 (ip), vehicle: saline with Tween-80
  T/C: 90 % of control
dose: 6.25 mg/kg/injection, schedule: Q04DX004 (ip), vehicle: saline with Tween-80
  T/C: 95 % of control
dose: 12.5 mg/kg/injection, schedule: Q04DX004 (ip), vehicle: saline with Tween-80
  T/C: 90 % of control
[10]
  T/C: 87 % of control

## Cc1c(N)nc([C@H](CC(N)=O)NC[C@H](N)C(N)=O)nc1C(=O)N[C@H](C(=O)N[C@H](C)[C@@H](O)[C@H](C)C(=O)N[C@H](C(=O)NCCc1nc(-c2nc(C(=O)NCCC[S+](C)C)cs2)cs1)[C@@H](C)O)C(OC1OC(CO)C(O)C(O)C1OC1OC(CO)C(O)C(OC(N)=O)C1O)c1cnc[nH]1 (stereo partly specified)
dose: 5.0 mg/kg/injection, schedule: Q04DX004 (ip), vehicle: saline
  T/C: 94 % of control
dose: 10.0 mg/kg/injection, schedule: Q04DX004 (ip), vehicle: saline
  T/C: 94 % of control
dose: 20.0 mg/kg/injection, schedule: Q04DX004 (ip), vehicle: saline
  T/C: 109 % of control
dose: 40.0 mg/kg/injection, schedule: Q04DX004 (ip), vehicle: saline
  T/C: 106 % of control

## [Cl][Pt][Cl].[NH-]C(CO)C(=O)O (stereo unspecified)
[9]
  T/C: 97 % of control
dose: 25.0 mg/kg/injection, schedule: Q04DX004 (ip), vehicle: water
  T/C: 111 % of control
dose: 50.0 mg/kg/injection, schedule: Q04DX004 (ip), vehicle: water
  T/C: 111 % of control

## COc1cc(N2C(=O)C(=O)C(C(C)=O)C2=O)c(OC)cc1Cl (stereo unspecified)
[5]
  T/C: 102 % of control
[6]
  T/C: 102 % of control
[7]
  T/C: 101 % of control
[8]
  T/C: 102 % of control

## COc1cc2c(c(OC)c1OC)-c1cccc(=O)cc1C(NC(C)=O)CC2 (stereo unspecified)
dose: 3.15 mg/kg/injection, schedule: Q04DX004 (ip), vehicle: Klucel (hydroxypropylcellulose) (HPC)
  T/C: 98 % of control
[15]
  T/C: 113 % of control
[16]
  T/C: 107 % of control
[4]
  T/C: 116 % of control and 117 % of control
dose: 36.0 mg/kg/injection, schedule: Q04DX004 (ip), vehicle: Klucel (hydroxypropylcellulose) (HPC)
  T/C: 114 % of control
[5]
  T/C: 115 % of control
dose: 60.0 mg/kg/injection, schedule: Q04DX004 (ip), vehicle: Klucel (hydroxypropylcellulose) (HPC)
  T/C: 113 % of control
[6]
  T/C: 110 % of control and 121 % of control
dose: 166.67 mg/kg/injection, schedule: Q04DX004 (ip), vehicle: Klucel (hydroxypropylcellulose) (HPC)
  T/C: 107 % of control
dose: 277.78 mg/kg/injection, schedule: Q04DX004 (ip), vehicle: Klucel (hydroxypropylcellulose) (HPC)
  T/C: 111 % of control

## CCC(CC)C(=O)NCC(=O)NO
[10]
  T/C: 93 % of control
[11]
  T/C: 93 % of control
[12]
  T/C: 93 % of control
[13]
  T/C: 97 % of control
[14]
  T/C: 92 % of control

## O=C(O)CCCCCCCC(=O)O
dose: 75.0 mg/kg/injection, schedule: Q04DX004 (ip), vehicle: distilled water + Tween-80
  T/C: 111 % of control
dose: 150.0 mg/kg/injection, schedule: Q04DX004 (ip), vehicle: distilled water + Tween-80
  T/C: 99 % of control
dose: 300.0 mg/kg/injection, schedule: Q04DX004 (ip), vehicle: distilled water + Tween-80
  T/C: 93 % of control

## Cc1[nH]c(=O)[nH]c(=O)c1CCSSCCc1c(C)[nH]c(=O)[nH]c1=O
dose: 37.5 mg/kg/injection, schedule: Q04DX004 (ip), vehicle: saline with Tween-80
  T/C: 90 % of control
dose: 75.0 mg/kg/injection, schedule: Q04DX004 (ip), vehicle: saline with Tween-80
  T/C: 86 % of control
dose: 150.0 mg/kg/injection, schedule: Q04DX004 (ip), vehicle: saline with Tween-80
  T/C: 89 % of control
dose: 300.0 mg/kg/injection, schedule: Q04DX004 (ip), vehicle: saline with Tween-80
  T/C: 86 % of control
dose: 600.0 mg/kg/injection, schedule: Q04DX004 (ip), vehicle: saline with Tween-80
  T/C: 90 % of control

## CC1[C@@H]2CC=C3[C@H]4CCC5Cc6nc7c(nc6C[C@@]5(C)C4CC(=O)[C@]32CO[C@]12OC(C)(C)CC2O)CC1CC[C@@H]2C3=C[C@H]4O[C@@]5(O[C@@](C)(CO)C[C@@H]5O)C(C)[C@@]4(O)[C@]3(C)[C@@H](O)CC2[C@]1(C)C7 (stereo partly specified)
dose: 12.5 micrograms/kg/injection, schedule: Q04DX004 (ip), vehicle: saline + alcohol
  T/C: 98 % of control
dose: 25.0 micrograms/kg/injection, schedule: Q04DX004 (ip), vehicle: saline + alcohol
  T/C: 94 % of control
dose: 50.0 micrograms/kg/injection, schedule: Q04DX004 (ip), vehicle: saline + alcohol
  T/C: 102 % of control
dose: 100.0 micrograms/kg/injection, schedule: Q04DX004 (ip), vehicle: saline + alcohol
  T/C: 103 % of control and 107 % of control
dose: 200.0 micrograms/kg/injection, schedule: Q04DX004 (ip), vehicle: saline + alcohol
  T/C: 114 % of control
